This passage reports growth results from ChEMBL document CHEMBL2440076, “New triarylpyrazoles as broad-spectrum anticancer agents: design, synthesis, and biological evaluation” (Eur J Med Chem, 2013).

Type in all cases: functional
For test [1], the system named is BT-549. Briefly: Growth inhibition of human BT549 cells assessed as cell growth at 10 uM after 48 hrs by sulforhodamine B assay. The following applies: BT-549, 48 h, read-out: Activity. In general terms: In SRB staining, fixed cells bind dye roughly in proportion to their protein.
Test [2] is described as follows: Growth inhibition of human Hs 578T cells assessed as cell growth at 10 uM after 48 hrs by sulforhodamine B assay. The following applies: read-out: Activity.
For test [3], the system named is MCF7. Briefly: Growth inhibition of human MCF7 cells assessed as cell growth at 10 uM after 48 hrs by sulforhodamine B assay. The note with it: MCF7, 48 h, read-out: Activity.
The test system of test [4] is DU-145. Briefly: Growth inhibition of human DU145 cells assessed as cell growth at 10 uM after 48 hrs by sulforhodamine B assay. The following applies: DU-145, 48 h, read-out: Activity.
The test system of test [5] is SN12C. Briefly: Growth inhibition of human SN12C cells assessed as cell growth at 10 uM after 48 hrs by sulforhodamine B assay. The following applies: read-out: Activity.
Test [6] has as its system CAKI-1. Briefly: Growth inhibition of human CAKI-1 cells assessed as cell growth at 10 uM after 48 hrs by sulforhodamine B assay. The note with it: CAKI-1, 48 h, read-out: Activity.
Test [7] deals with RXF 393. Briefly: Growth inhibition of human RXF393 cells assessed as cell growth at 10 uM after 48 hrs by sulforhodamine B assay. The note with it: RXF 393, 48 h, read-out: Activity.
Test [8] concerns ACHN. Briefly: Growth inhibition of human ACHN cells assessed as cell growth at 10 uM after 48 hrs by sulforhodamine B assay. The following applies: read-out: Activity.
The test system of test [9] is OVCAR-5. Briefly: Growth inhibition of human OVCAR5 cells assessed as cell growth at 10 uM after 48 hrs by sulforhodamine B assay. The following applies: OVCAR-5, 48 h, read-out: Activity.
The subject of test [10] is OVCAR-4. Briefly: Growth inhibition of human OVCAR4 cells assessed as cell growth at 10 uM after 48 hrs by sulforhodamine B assay. The note with it: OVCAR-4, 48 h, read-out: Activity.
The subject of test [11] is UACC-62. Briefly: Growth inhibition of human UACC62 cells assessed as cell growth at 10 uM after 48 hrs by sulforhodamine B assay. The following applies: UACC-62, 48 h, read-out: Activity.
The subject of test [12] is IGROV-1. Briefly: Growth inhibition of human IGROV1 cells assessed as cell growth at 10 uM after 48 hrs by sulforhodamine B assay. The note with it: IGROV-1, 48 h, read-out: Activity.
Test [13] relates to UACC-257. Briefly: Growth inhibition of human UACC257 cells assessed as cell growth at 10 uM after 48 hrs by sulforhodamine B assay. The note with it: UACC-257, 48 h, read-out: Activity.
The subject of test [14] is U-251. Briefly: Growth inhibition of human U251 cells assessed as cell growth at 10 uM after 48 hrs by sulforhodamine B assay. The following applies: U-251, 48 h, read-out: Activity.
Test [15] concerns NCI-H322M. Briefly: Growth inhibition of human NCI-H322M cells assessed as cell growth at 10 uM after 48 hrs by sulforhodamine B assay. The following applies: read-out: Activity.
Test [16] has as its system K562. Briefly: Growth inhibition of human K562 cells assessed as cell growth at 10 uM after 48 hrs by sulforhodamine B assay. The following applies: K562, 48 h, read-out: Activity.
Test [17] relates to CCRF-CEM. Briefly: Growth inhibition of human CCRF-CEM cells assessed as cell growth at 10 uM after 48 hrs by sulforhodamine B assay. The note with it: read-out: Activity.

Structures are written as SMILES.

Consider `COc1cc(-c2nn(-c3cccc(NC(=O)Nc4ccccc4)c3)cc2-c2ccncc2)ccc1Cl`, for which the growth at 10 µM in [1] was 89.9%; in [2], 82.7%; in test [3], 88.8%; in [4] it was 101%; in [5], 86.2%; in test [6] it was 96.1%. For the same compound, the growth at 10 µM turned out to be 72.8% in test [7]; 78.2% in test [8]; 91.3% in test [9]; 90.5% in test [10]; 86.5% in test [11]; 86.5% in test [12]. Further, the growth at 10 µM in [13] is 84.5%; in test [14], 85%; in [15] it was 95.5%; in test [16] it was 45.4%; in [17], 83.3%.
Consider `COc1cc(-c2nn(-c3cccc(NC(=O)c4ccc(Br)c(C)c4)c3)cc2-c2ccncc2)ccc1Cl`, for which the growth at 10 µM in [1] is 91.4%; in [2], 74.9%; in [3] it was 75%; in test [4] it was 102%; in [5], 81%; in test [6], 86.8%. Besides, the growth at 10 µM in test [7] stood at 41.7%; in test [8] it was 70.2%; in test [9] it was 90.7%; in test [10], 86.2%; in [11], 79.9%; in test [12], 76.2%. The growth at 10 µM in test [13] stood at 79.5%; in test [14], 73.7%; in [15], 91.7%; in test [16], 77.3%; in test [17] it was 74.6%.
Turning to `O=C(Nc1cccc(-n2cc(-c3ccncc3)c(-c3ccc(Cl)c(O)c3)n2)c1)c1ccccc1`, the growth at 10 µM in test [1] was determined as 83.4%; in [2] it was 48.4%; in test [3] it was 62.6%; in test [4] it was 56.9%; in test [5], 79.3%; in test [6] it was 90.3%. In addition, the growth at 10 µM in test [7] turned out to be 0.59%; in test [8], 53.2%; in [9] it was 115%; in [10] it was 40.7%; in test [11], 68.3%; in test [12], 88%. Moreover, the growth at 10 µM in test [13] was determined as 44.2%; in test [14], 75.4%; in test [15] it was 89.2%; in test [16], 60.7%; in test [17], 67.5%.
With `Cc1cc(C(=O)Nc2cccc(-n3cc(-c4ccncc4)c(-c4ccc(Cl)c(O)c4)n3)c2)ccc1Br`, the growth at 10 µM in test [1] was 103%; in [2], 108%; in test [3], 85.4%; in [4], 103%; in test [5] it was 101%; in [6], 93.9%. For the same compound, the growth at 10 µM in [7] worked out at 91%; in [8] it was 91.8%; in test [9], 109%; in test [10] it was 108%; in test [11], 105%; in test [12], 101%. Also, the growth at 10 µM came to 95.9% in test [13]; 92.1% in test [14]; 107% in test [15]; 91.4% in [16]; 87.2% in [17].
On to `O=C(Nc1cccc(-n2cc(-c3ccncc3)c(-c3ccc(Cl)c(O)c3)n2)c1)c1ccc(Cl)c(C(F)(F)F)c1`, for which the growth at 10 µM in test [1] came to 94.5%; in test [2], 91.9%; in test [3], 93.9%; in test [4], 95%; in test [5], 98.6%; in [6] it was 100%. In addition, the growth at 10 µM in test [7] worked out at 104%; in [8], 86.6%; in [9], 99.6%; in test [10] it was 111%; in test [11] it was 100%; in test [12], 98.4%. The growth at 10 µM amounted to 104% in test [13]; 95.9% in test [14]; 108% in [15]; 105% in test [16]; 98.8% in test [17].
